These results are taken from patent US20090163515A1, “Compounds Which Bind to the Active Site of Protein Kinase Enzymes” (Biofocus Discovery Ltd., priority 2003, published 2009).

For the experiment, the system named is ROK. The experiment is described as follows: ROK activity assay. Type of experiment: biochemical. The conditions noted are these: assays conducted at 1-100 μM. More on the design: key: +: active; ++: more active; +++: very active.
On to `NC(=O)c1cccc(-c2cncc(NCc3cccc(Cl)c3)c2)c1` [3-[5-(3-Chloro-benzylamino)-pyridin-3-yl]-benzamide], for which the ROK activity result was “++”. With `COc1ccc(CNc2cnc(-c3ccncc3)cn2)cc1` [(4-Methoxy-benzyl)-(5-pyridin-4-yl-pyrazin-2-yl)-amine] the entry was “+”; with `CN(Cc1cccc(O)c1)c1cncc(-c2ccc(O)cc2)c1` [4-{5-[(3-hydroxy-benzyl)-methyl-amino]-pyridin-3-yl}-phenol], “+”. The value for `Oc1ccc(-c2cnc(NCc3cccc(Cl)c3)cn2)cc1` [4-[5-(3-Chloro-benzylamino)-pyrazin-2-yl]-phenol] was “+”; that for `Oc1cccc(CNc2cncc(-c3cc[nH]n3)c2)c1` [3-{[5-(1H-Pyrazol-3-yl)-pyridin-3-ylamino]-methyl}-phenol] was “++”; that for `CC(=O)Nc1ccc(-c2cncc(NCc3cccc(O)c3)c2)cc1` [N-{4-[5-(3-Hydroxy-benzylamino)-pyridin-3-yl]-phenyl}-acetamide] was “+”. For the molecule `c1ccc2ncc(-c3cnc(NCCc4ccncc4)cn3)cc2c1` [(2-Pyridin-4-yl-ethyl)-(5-quinolin-3-yl-pyrazin-2-yl)-amine], the ROK activity result is reported as “++”. With `c1ccc2cc(CNc3cncc(-c4ccncc4)c3)ccc2c1` [[3,4′]Bipyridinyl-5-yl-naphthalen-2-ylmethyl-amine] the entry was “++”; with `NC(=O)c1cccc(-c2cncc(NCc3cccc(O)c3)c2)c1` [3-[5-(3-Hydroxy-benzylamino)-pyridin-3-yl]-benzamide], “+++”; with `Oc1ccc(-c2cncc(NCC3CCCCC3)c2)cc1` [4-[5-(Cyclohexylmethyl-amino)-pyridin-3-yl]-phenol], “+”. With `NC(=O)c1cccc(-c2cncc(Nc3cccc(Br)c3)c2)c1` [3-[5-(3-Bromo-phenylamino)-pyridin3-yl]-benzamide] the entry was “+”. Regarding `c1cc(-c2cncc(NCc3ccoc3)c2)ccn1` [[3,4′]Bipyridinyl-5-yl-furan-3-ylmethyl-amine], the ROK activity result was “++”.

Take `Oc1cccc(-c2cncc(Nc3ccc(Cl)cc3)c2)c1` [3-[5-(4-Chloro-phenylamino)-pyridin-3-yl]-phenol]: the ROK activity entry was “+”. The value for `Oc1ccc(-c2cncc(Nc3cccc(O)c3)c2)cc1` [4-[5-(3-Hydroxy-phenylamino)-pyridin-3-yl]-phenol] was “++”; that for `COc1ccc(CNc2cncc(-c3ccc(O)cc3)c2)cc1O` [5-{[5-(4-Hydroxy-phenyl)-pyridin-3-ylamino]-methyl}-2-methoxy-phenol] was “++”. The value for `Oc1cccc(CNc2cncc(-c3ccncc3)c2)c1` [3-([3,4′]Bipyridinyl-5-ylaminomethyl)-phenol] was “++”; that for `O=[N+]([O-])c1cccc(Nc2cncc(-c3ccncc3)c2)c1` [[3,4′]Bipyridinyl-5-yl-(3-nitro-phenyl)-amine] was “++”. With `NS(=O)(=O)c1ccc(CNc2cnc(-c3ccncc3)cn2)cc1` [4-[(5-Pyridin-4-yl-pyrazin-2-ylamino)-methyl]-benzenesulfonamide] the entry was “++”. `NC(=O)c1cccc(-c2cncc(NCc3ccc(F)c(F)c3)c2)c1` [3-[5-(3,4-Difluoro-benzylamino)-pyridin-3-yl]-benzamide]: the ROK activity result is “++”. With `c1cncc(CCNc2cnc(-c3ccc4ccccc4c3)cn2)c1` [(5-Naphthalen-2-yl-pyrazin-2-yl)-(2-pyridin-3-yl-ethyl)-amine] the entry was “+”; with `O=C(NCCO)c1cccc(-c2cnc(NCCc3ccncc3)cn2)c1` [N-(2-Hydroxy-ethyl)-3-[5-(2-pyridin-4-yl-ethylamino)-pyrazin-2-yl]-benzamide], “+”; with `FC(F)(F)Oc1ccc(-c2cnc(NCCc3ccncc3)cn2)cc1` [(2-Pyridin-4-yl-ethyl)-[5-(4-trifluoromethoxy-phenyl)-pyrazin-2-yl]-amine], “++”. The value for `Clc1cccc(CNc2cnc(-c3ccncc3)cn2)c1` [(3-Chloro-benzyl)-(5-pyridin-4-yl-pyrazin-2-yl)-amine] was “++”; that for `c1cc(-c2cncc(NCC3CCCCC3)c2)ccn1` [[3,4′]Bipyridinyl-5-yl-cyclohexylmethyl-amine] was “++”.

Take `COc1ccc(CNc2cncc(-c3ccc(O)cc3)c2)cc1` [4-[5-(4-Methoxy-benzylamino)-pyridin-3-yl]-phenol]: the ROK activity result is “++”. Regarding `Oc1cccc(CNc2cncc(-c3cncc4ccccc34)c2)c1` [3-[(5-Isoquinolin-4-yl-pyridin-3-ylamino)-methyl]-phenol], the ROK activity entry is given as “+”.

Turning to `Oc1ccc(-c2cncc(NCc3ccc(Cl)c(Cl)c3)c2)cc1` [4-[5-(3,4-Dichloro-benzylamino)-pyridin-3-yl]-phenol], the ROK activity entry is “+”. With `FC(F)(F)Oc1cccc(CNc2cncc(-c3ccncc3)c2)c1` [[3,4′]Bipyridinyl-5-yl-(3-trifluoromethoxy-benzyl)-amine] the entry was “++”; with `Brc1ccc(CNc2cncc(-c3ccncc3)c2)cc1` [[3,4′]Bipyridinyl-5-yl-(4-bromo-benzyl)-amine], “+++”; with `COc1ccc(-c2cnc(NCCc3ccncc3)cn2)cc1` [[5-(4-Methoxy-phenyl)-pyrazin-2-yl]-(2-pyridin-4-yl-ethyl)-amine], “++”. With `c1ccc2cc(-c3cnc(NCCc4ccncc4)cn3)ccc2c1` [(5-Naphthalen-2-yl-pyrazin-2-yl)-(2-pyridin-4-yl-ethyl)-amine], the ROK activity result is listed as “++”. The value for `c1cc(-c2cncc(NCc3ccc4c(c3)OCO4)c2)ccn1` [Benzo[1,3]dioxol-5-ylmethyl-[3,4′]bipyridinyl-5-yl-amine] was “++”; that for `NC(=O)c1cccc(-c2cncc(NCC3CCCCC3)c2)c1` [3-[5-(Cyclohexylmethyl-amino)-pyridin-3-yl]-benzamide] was “+”. With `Oc1cccc(CNc2cncc(-c3ccc4c(c3)OCO4)c2)c1` [3-[(5-Benzo[1,3]dioxol-5-yl-pyridin-3-ylamino)-methyl]-phenol] the entry was “++”; with `Brc1cccc(Nc2cncc(-c3ccncc3)c2)c1` [[3,4′]Bipyridinyl-5-yl-(3-bromo-phenyl)-amine], “++”; with `NC(=O)c1cccc(-c2cncc(NCc3ccoc3)c2)c1` [3-{5-[(Furan-3-ylmethyl)-amino]-pyridin-3-yl}-benzamide], “+”.

Consider `NC(=O)c1cccc(-c2cncc(NCc3ccc(Cl)c(Cl)c3)c2)c1` [3-[5-(3,4-Dichloro-benzylamino)-pyridin-3-yl]-benzamide], for which the ROK activity entry is “++”.

For `Oc1cccc(-c2cncc(Nc3ccc4ccccc4c3)c2)c1` [3-[5-(Naphthalen-2-ylamino)-pyridin-3-yl]-phenol], the ROK activity entry is given as “+”.

Take `Clc1ccc(CNc2cncc(-c3ccncc3)c2)cc1Cl` [[3,4′]Bipyridinyl-5-yl-(3,4-dichloro-benzyl)-amine]: the ROK activity entry was “++”. On to `Oc1ccc(-c2cncc(NCc3ccc4c(c3)OCO4)c2)cc1` [4-{5-[(Benzo[1,3]dioxol-5-ylmethyl)-amino]-pyridin-3-yl}-phenol], for which the ROK activity result was “++”. With `COc1ccc(CNc2cncc(-c3ccncc3)c2)cc1` [[3,4′]Bipyridinyl-5-yl-(4-methoxy-benzyl)-amine] the entry was “+++”; with `NC(=O)c1ccc(-c2cncc(NCc3cccc(O)c3)c2)cc1` [4-[5-(3-Hydroxy-benzylamino)-pyridin-3-yl]-benzamide], “+++”. With `CC(=O)c1ccc(-c2cnc(NCCc3ccncc3)cn2)s1` [1-{5-[5-(2-Pyridin-4-yl-ethylamino)-pyrazin-2-yl]-thiophen-2-yl}-ethanone] the entry was “+”; with `COc1ccc(NC(=O)c2ccc(-c3cnc(NCCc4ccncc4)cn3)cc2)cc1` [N-(4-Methoxy-phenyl)-4-[5-(2-pyridin-4-yl-ethylamino)-pyrazin-2-yl]-benzamide], “++”; with `OCc1ccc(-c2cnc(NCCc3ccncc3)cn2)cc1` [{4-[5-(2-Pyridin-4-yl-ethylamino)-pyrazin-2-yl]-phenyl}-methanol], “+”. With `NC(=O)c1cccc(-c2cncc(NCc3ccc(Cl)c(F)c3)c2)c1` [3-[5-(4-Chloro-3-fluoro-benzylamino)-pyridin-3-yl]-benzamide] the entry was “++”; with `NC(=O)c1cccc(-c2cncc(NCc3cccnc3)c2)c1` [3-{5-[(Pyridin-3-ylmethyl)-amino]-pyridin-3-yl}-benzamide], “+”. On to `Oc1ccc(-c2cncc(NCc3ccc(F)c(F)c3)c2)cc1` [4-[5-(3,4-Difluoro-benzylamino)-pyridin-3-yl]-phenol], for which the ROK activity entry is “++”. With `Oc1cccc(CNc2cncc(-c3cccc(O)c3)c2)c1` [(5-(3′-hydroxy-phenyl)-pyridin-3-yl)-(3-hydroxy-benzyl)-amine], the ROK activity entry is on record as “+”.

Consider `Nc1ccc(C(=O)Nc2ccc(Nc3cnc(-c4ccncc4Cl)cn3)cc2)cc1` [4-Amino-N-{4-[5-(3-chloro-pyridin-4-yl)-pyrazin-2-ylamino]-phenyl}-benzamide], for which the ROK activity result is on record as “++”.
